Patent US7651846B2, “Treatment and diagnosis of conditions associated with elevated arginase activity” (Children's Hospital & Research Center at Oakland, priority 2003, dated 2010)

Experiments:
[1] = system: asthma patients; conditions: nebulised, steroid naive asthma; cited from earlier work
[2] = system: Patients with sickle cell disease and documented pulmonary hypertension; assay: Oral L-arginine in sickle cell disease patients with pulmonary hypertension, Doppler echocardiography; format: in vivo, human
Description: Sickle cell patients. Seventeen sickle cell disease patients with documented pulmonary hypertension at steady-state were enrolled in the study. All known patients with pulmonary hypertension receiving care at the Northern California Comprehensive Sickle Cell Center were approached for participation in this analysis. Twelve patients were homozygous for hemoglobin S, three patients had hemoglobin type SC, and two patient had hemoglobin S β-thalassemia. The mean age of patients was 32.7±15 years with a range of 13 to 63 years. There were seven women enrolled. Ten ethnically matched normal non-sickle cell disease volunteers were enrolled as a control group in order to compare amino acid levels and arginase activity. The mean age was 20.6±10 years, ranging from 10 to 34 years. There were four females and six males enrolled. Pulmonary hypertension was defined as estimated pulmonary artery pressures >30 mm Hg by echocardiogram (or tricuspid regurgitant jet velocity of greater than 2.5 m/sec), >two months duration, not associated with acute chest syndrome. A chart review was performed on all patients to obtain tricuspid regurgitant jet velocity data from previous echocardiograms.
(§1) Patients with sickle cell disease and documented pulmonary hypertension by echocardiography were treated with oral L-arginine-HCl, at a dose of 0.1 g/kg TID for five days. […] Blood samples for determination of amino acid levels were drawn in the morning of Day 0 (pre-treatment), […], and Day six of the study. Arginase activity levels were determined on Day 0. No patients were being concurrently treated with vasodilators or anticoagulant agents, and no patients received a red blood cell transfusion during the five-day study period. Cardiologists involved in the interpretation of echocardiograms were unaware of the therapy given.
Echocardiography. […] They were the only patient found to not show an improvement in pulmonary hypertension by echocardiogram.
Results were unavailable from outside hospitals in three patients. […]

[3] = Plasma amino acid levels after oral L-arginine supplementation in SCD patients with pulmonary hypertension; format: in vivo, human; conditions: after five days of oral L-arginine supplementation, n=10, p<0.05
Experimental: Amino Acid Levels. (A complete amino acid panel, including arginine, citrulline, ornithine, and L-arginine analogue asymmetric di-methyl-L-arginine). Quantitative plasma amino acid levels are measured in μmol/L, using a Beckman 6300 amino acid analyzer. The amino acids are separated on an lithium ion exchange column and then reacted with ninhydrin to generate a color response. The data is collected and analyzed using Beckman 32 Karat software, at the Molecular Structure Facility, University of California, Davis, Calif.
as §1

[4] = system: patients with a known diagnosis of asthma; conditions: single oral dose 0.1 gm/kg, one patient
Experimental: The effects of arginine supplementation on pulmonary function tests is evaluated by administering supplemental arginine (oral or intravenous) alone or in conjunction with magnesium and/or an arginase inhibitor to patients with a known diagnosis of asthma, defined as ≧3 wheezing episodes and a past history of asthma medication usage (e.g., bronchodilators, steroids, inhaled steroids, or leukotriene inhibitors etc). Pulmonary function tests are performed before and after a single dose of arginine (0.1 gram/kg to a max of 10 grams).
A single dose of oral arginine (0.1 gm/kg) was administered. Pulmonary function tests were determined prior to treatment and 2 hours after arginine supplementation.

[5] = system: hyperresponsiveness of reactive airways; conditions: animal studies, inhalation of low doses; cited from earlier work
[6] = system: cystic fibrosis patients; conditions: inhaled; cited from earlier work
[7] = system: normal and asthmatic subjects; conditions: inhaled, dose-dependent; cumulative effect higher in asthmatic subjects; cited from earlier work
[8] = system: patients with asthma; conditions: oral; cited from earlier work
[9] = system: cationic amino acid molecules (Cationic Amino Acid Transporter, CAT); conditions: read-out: Km for arginine transport; cited from earlier work
[10] = system: arginase; conditions: cited from earlier work

SMILES | exhaled NO following administration [1] | pulmonary artery systolic pressure after therapy ([2]; oral 0.1 g/kg TID for five days, baseline 63.9±13 mmHg, p=0.002) | mean reduction of pulmonary artery systolic pressure ([2]; oral L-arginine-HCl 0.1 g/kg TID, after five days of therapy, p=0.002) | follow-up echocardiography (pulmonary artery systolic pressure) ([2]; ≧one month after arginine therapy, nine compliant patients: four reverted to baseline, four persistent improvement, one worsening) | plasma L-arginine concentration [3] | plasma ornithine concentration [3] | FIF 50% improvement ([4]; 2 hours after) | effect on lung volumes ([4]; 2 hours after) | effect on spirometry ([4]; 2 hours after) | airway conductance, Gaw increase ([4]; within 2 hours) | airway resistance, Raw decrease ([4]; within 2 hours) | oxygen saturation by venous blood gas after treatment ([4]; increase from 85 %) | hyperresponsiveness of reactive airways [5] | pulmonary functions [6] | exhaled NO [7] | airway hyperresponsiveness to histamine as reflected by PC(20) [8] | Km [9] | inhibition of arginase activity [10]
N=C(N)NCCC[C@@H](N)C(=O)O [D-arginine] | increased | – | – | – | – | – | – | – | – | – | – | – | – | – | – | – | – | –
N=C(N)NCCC[C@H](N)C(=O)O [L-arginine] | increased | 54.2±12 mmHg | 15.2% | mixed results | increased significantly | increased significantly | 23% | minimal effect | did not significantly effect spirometry | 28% | 22% | 92% | completely blocked | improves | increased | does not influence | ~100 µM | –
NC(=NCCC[C@H](N)C(=O)O)NO [NG-hydroxyl-L-arginine] | – | – | – | – | – | – | – | – | – | – | – | – | – | – | – | – | – | potent inhibitor
